Molecular target: T1, Human V2 Vasopressin Receptor (Homo sapiens, UniProt P30518)
T1 construct: expressed in transfected cells; host or cells: mouse fibroblast cell line LV-2
Experiment: Binding to Membranes of Mouse Fibroblast Cell Line (LV-2) Transfected with the cDNA Expressing the Human V2 Receptor
Conditions: LV-2 cell membranes
Procedure: Binding to Membranes Of Mouse Fibroblast Cell Line (LV-2) Transfected with the cDNA expressing the Human V2 Vasopressin Receptor
Flasks of 175 ml capacity, containing attached cells grown to confluence are cleared of culture medium by aspiration. The flasks containing the attached cells are rinsed with 2×5 ml of phosphate buffered saline (PBS) and the liquid aspirated off each time. Finally, 5 ml of an enzyme free dissociation Hank's based solution (Specialty Media, Inc., Lafayette, N.J.) is added and the flasks are left undisturbed for 2 min. The content of all flasks is poured into a centrifuge tube and the cells pelleted at 300×g for 15 min. The Hank's based solution is aspirated off and the cells homo-genized with a polytron at setting #6 for 10 sec in 10.0 mM Tris.HCl buffer, pH 7.4 containing 0.25M sucrose and 1.0 mM EDTA. The homogenate is centrifuged at 1500×g for 10 min to remove ghost membranes. The supernatant fluid is centrifuged at 100,000×g for 60 min to pellet the receptor protein. Upon completion, the pellet is resuspended in a small volume of 50.0 mM Tris.HCl buffer, pH 7.4. The protein content is determined by the Lowry method and the receptor membranes are suspended in 50.0 mM Tris.HCl buffer containing 0.1 mM phenylmethylsulfonylfluoride (PMSF) and 0.2% bovine serum albumin (BSA) to give 2.5 mg receptor protein per ml of suspension.
For binding experiments, the following is added in μl volume to wells of a 96 well format of a microtiter plate: 100.0 μl of 100.0 mM Tris.HCl buffer containing 0.2% heat inactivated BSA, 10.0 mM MgCl2 and a mixture of protease inhibitors: leupeptin, 1.0 mg %; aprotinin, 1.0 mg %; 1,10-phenanthroline, 2.0 mg %; trypsin inhibitor, 10.0 mg % and 0.1 mM PMSF, 20.0 μl of [^3 H]Arginine^8, vasopressin (S.A. 75.0 Ci/mmole) at 0.8 nM and the reaction initiated by the addition of 80.0 μl of tissue membranes (200.0 μg tissue protein). The plates are left undisturbed on the bench top for 120 min to reach equilbrium. Non-specific binding is assessed in the presence of 1.0 μM of unlabeled ligand, added in 20 μl volume. For test compounds, these are solubilized in 50% dimethylsulfoxide (DMSO) and added in 20.0 μl volume to a final incubation volume of 200 μl . Upon completion of binding, the content of each well is filtered off, using a Brandel® cell Harvester (Gaithersburg, Md.). The radioactivity trapped on the filter disk by the ligand-receptor complex is assessed by liquid scintillation counting in a Packard LS Counter, with an efficiency of 65% for tritium. The data are analyzed for IC50 values by the LUNDON-2 program for competition (LUNDON SOFTWARE, OH).

T1 sequence (P30518 whole entry): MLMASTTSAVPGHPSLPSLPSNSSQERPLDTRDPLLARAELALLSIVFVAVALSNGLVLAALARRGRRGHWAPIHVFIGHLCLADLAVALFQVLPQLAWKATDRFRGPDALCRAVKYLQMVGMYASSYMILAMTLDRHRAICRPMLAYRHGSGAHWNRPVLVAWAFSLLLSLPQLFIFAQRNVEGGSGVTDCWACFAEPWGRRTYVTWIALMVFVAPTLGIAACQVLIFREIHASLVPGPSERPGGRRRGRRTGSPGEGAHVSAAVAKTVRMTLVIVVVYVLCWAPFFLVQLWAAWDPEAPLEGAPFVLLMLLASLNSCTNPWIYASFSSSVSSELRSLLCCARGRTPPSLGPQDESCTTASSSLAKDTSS

Row | IC50 | SMILES
1 | 0.004 µM | O=C(Nc1ccc(C(=O)N2CCCCc3sc(Cl)cc32)cc1)c1c(Cl)cccc1Cl [Example 95, N-[4-[(2-Chloro-5,6,7,8-tetrahydro-4H-thieno[3,2-b]azepin-4-yl)carbonyl]phenyl]-2,6-dichlorobenzamide]
2 | 0.0022 µM | O=C(Nc1ccc(C(=O)N2CCCCc3sccc32)c(Cl)c1)c1ccc(F)cc1Cl [Example 183]
3 | 0.022 µM | O=C(Nc1ccc(C(=O)N2CCCCc3sccc32)c(Cl)c1)c1ccc(Cl)cc1Cl [Example 68, N-[4-[(5,6,7,8-Tetrahydro-4H-thieno[3,2-b]azepin-4-yl)carbonyl]-3-chlorophenyl]-2,4-dichlorobenzamide]
4 | 0.0034 µM | Cc1ccc(F)cc1C(=O)Nc1ccc(C(=O)N2CCCCc3sccc32)c(Cl)c1 [Example 70, N-[4-[(5,6,7,8-Tetrahydro-4H-thieno[3,2-b]azepin-4-yl)carbonyl]-3-chlorophenyl]-5-fluoro-2-methylbenzamide]
